Assay results from US9616047B2, “Inhibitors of beta-catenin in treatment of colorectal cancer” (Regents of the University of Minnesota, priority 2014, dated 2017).
Entries after “also recorded” stand apart in the source; their conditions may differ.

Columns and labels:
β-catenin/Tcf-4 complex = test: Immunoprecipitation assay of β-catenin/Tcf-4 complex in colon cancer cells; type: cell-based
Method: Colon cancer cells treated or not treated with low or high concentrations of compounds for 24 h were disrupted with lysis buffer (50 mmol/L Tris, pH 8, 250 mmol/L NaCl, 5 mmol/L EDTA, 0.1% NP-40, 10% glycerol, and 1× protease inhibitor cocktail). Cell lysates were cleared by centrifugation, and immunoprecipitations were performed by incubating overnight with anti-β-catenin. Agarose beads were then added and samples incubated for 3 h at 4° C. After removing unbound proteins by washing five times with lysis buffer, bound proteins were harvested by boiling in sample buffer, and resolved by 8% SDS-PAGE. β-Catenin and Tcf-4 proteins were visualized using a chemiluminescence reagent (Amersham).

[1] = tested on: β-catenin/Tcf-4 luciferase activity; test: β-catenin/Tcf-4 luciferase reporter assay (TOP-flash/FOP-flash) in HCT116; type: cell-based; settings: normalized to Renilla, 24 h treatment
Description: (§1) FIGS. 1A-C. HI-B1, HI-B5 and HI-B9 inhibit beta-catenin/Tcf-4 luciferase activity in colon cancer cell lines. (A) Chemical structures of three compounds. (B-C) Effects of HI-B1, HI-B5 and HI-B9 on the β-catenin/Tcf-4 luciferase activity in HCT116 (B) and HT29 (C) colon cancer cell lines. […] Colon cancer cells were co-transfected with reporter genes harboring the β-catenin/Tcf binding site (TOP-flash) or a mutant β-catenin/Tcf binding site (FOP-flash), respectively, and the Renilla gene. The luciferase activity was normalized to Renilla activity.
(§2) Transient transfection was performed using jetPEI and assays to detect firefly luciferase and Renilla activities according to the manufacturer's manual (Promega). Briefly, cells were seeded onto 10-cm plates and co-transfected with 400 ng of the Renilla luciferase internal control gene and 4 μg of the TOP-flash luciferase reporter construct containing three tandem Tcf consensus binding sites upstream of luciferase cDNA, or the FOPflash luciferase reporter construct, a plasmid with mutated Tcf binding sites. After 16 h of transfection, cells were trypsinized and seeded onto 48-well plates, and cells were treated with respective chemicals for 24 h. Luciferase and Renilla activities were measured using their substrates.

[2] = tested on: xenograft colon cancer tumor; test: Xenograft colon cancer tumor growth in nude mice; type: in vivo
β-catenin = test: Ex vivo pull-down with compound-conjugated Sepharose 4B beads and colon cancer cell lysate: β-catenin; type: binding; settings: colon cancer cell lysates; compound-conjugated Sepharose 4B beads
Method: (§3) Protein extracts (500 μg) of colon cancer cells were mixed with Sepharose-4B beads (as a negative control) or chemical-conjugated Sepharose 4B beads (100 μl) in reaction buffer. After being washed five times with buffer, the proteins were visualized by Western blot analysis.

Tcf-4/β-catenin complex [3] = test: Immunoprecipitation and Western blotting in 293T cells transfected with wildtype or mutant β-catenin; type: cell-based; settings: 293T cells transfected with mutant β-catenin
Method: (§4) We used computational biology technology and medicinal chemistry to identify potential inhibitors of β-catenin. […] To further confirm binding, wildtype or mutant β-catenin was transfected into 293T cells and immunoprecipitation and Western blotting were performed. […] Overall, esculetin appears to be an effective, non-toxic inhibitor of the Tcf-4/β-catenin complex.

Tcf-4/β-catenin complex [4] = molecular target: T1, Tcf-4/β-catenin complex (Homo sapiens, UniProt P35222); test: as above; type: cell-based; settings: 293T cells transfected with wildtype β-catenin
T1 construct: expressed in transfected cells; host or cells: 293T cells
T1 sequence (P35222 2-781): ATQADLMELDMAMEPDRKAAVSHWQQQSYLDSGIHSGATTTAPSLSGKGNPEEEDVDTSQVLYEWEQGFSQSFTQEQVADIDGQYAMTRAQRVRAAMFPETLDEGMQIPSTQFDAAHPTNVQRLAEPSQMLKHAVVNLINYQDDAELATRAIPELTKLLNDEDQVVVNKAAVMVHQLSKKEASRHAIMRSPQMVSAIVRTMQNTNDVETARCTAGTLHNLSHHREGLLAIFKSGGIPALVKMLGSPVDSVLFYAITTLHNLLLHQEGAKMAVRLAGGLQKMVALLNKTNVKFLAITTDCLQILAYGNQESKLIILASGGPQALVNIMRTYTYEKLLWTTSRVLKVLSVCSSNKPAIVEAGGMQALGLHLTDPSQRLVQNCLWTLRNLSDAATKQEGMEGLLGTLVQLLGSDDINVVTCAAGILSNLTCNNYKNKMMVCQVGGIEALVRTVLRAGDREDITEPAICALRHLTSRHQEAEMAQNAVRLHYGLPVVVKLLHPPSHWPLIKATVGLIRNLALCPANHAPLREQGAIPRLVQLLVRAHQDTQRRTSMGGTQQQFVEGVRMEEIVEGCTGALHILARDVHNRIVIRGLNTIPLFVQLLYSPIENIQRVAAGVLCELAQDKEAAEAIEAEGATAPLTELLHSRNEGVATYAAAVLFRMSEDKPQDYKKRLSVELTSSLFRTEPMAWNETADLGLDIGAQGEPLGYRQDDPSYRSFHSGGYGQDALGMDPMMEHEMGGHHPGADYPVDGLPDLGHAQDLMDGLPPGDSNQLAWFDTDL
Method: as §4

[5] = tested on: β-catenin/Tcf-4 luciferase activity; test: β-catenin/Tcf-4 luciferase reporter assay (TOP-flash/FOP-flash) in HT29; type: cell-based; settings: normalized to Renilla, 24 h treatment
Description: as §1, §2

[6] = tested on: HCT116 colon cancer cells; test: Soft agar assay, anchorage-independent growth, HCT116; type: cell-based
Method: (§5) FIG. 2. […] HCT116 and HT-29 colon cancer cells. Colony formation of two cell lines were inhibited by treatment of β-catenin inhibitor candidates. Cells (8×10^3/ml) were incubated with or without HI-B5 or HI-B9 compounds in 1 mL of 0.33% BME agar containing 10% FBS or in 3.5 mL of 0.5% BME agar containing 10% FBS. The cultures were maintained at 37° C. in a 5% CO2 incubator for 7 days, after which the cell colonies were counted under a microscope.
(§6) Cells (8×10^3 per well) suspended in Basal Medium Eagle (BME) supplemented with 10% FBS were added to 0.3% agar with different doses of chemicals in a top layer over a basal layer of 0.6% agar. The cultures were maintained at 37° C. in a 5% CO2 incubator for 2 wk and then colonies were counted under a microscope using the Image-Pro Plus Software (v.4) program (Media Cybernetics).

HT-29 colon cancer cells = test: Soft agar assay, anchorage-independent growth, HT29; type: cell-based
Method: as §5, §6

[7] = tested on: target genes expressed by β-catenin/Tcf-4 complex; test: Quantitative real-time PCR of β-catenin/Tcf-4 target genes; type: cell-based; settings: HI-B5 40 μM or HI-B9 20 μM; 12 hr of treatment
Method: FIGS. 3A-D. HI-B5 and HI-B9 reduce mRNA expression level of target genes expressed by β-catenin/Tcf-4 complex. (A) axin2, (B) cyclin D1, (C) c-myc and (D) pparδ mRNA expression was reduced by HI-B5 40 μM or HI-B9 20 μM treatment. Esculetin was used as a positive control. Expression level of each gene was detected after 12 hr of chemical treatment.
RNA isolation was performed according to the Trizol reagent protocol (catalog #15596-018, Invitrogen). The concentration and the purity of RNA was determined by measuring the absorbance at 260/280 nm. cDNA was synthesized using 1 μg of RNA and the amfiRevert Platinum cDNA synthesis master mix (GenDEPOT, Cat. No. R5600). For real time PCR, 1 μl of the synthesized cDNA was loaded into 1 well of a 96-well plate for detection of specific target genes using the Power SYBR Green PCR master mix (ABsystems, #4367659).

Tcf-4 = molecular target: T2, Tcf-4 (Homo sapiens, UniProt Q9NQB0); test: Ex vivo pull-down with compound-conjugated Sepharose 4B beads and colon cancer cell lysate: Tcf-4; type: binding; settings: HCT116 and HT29 cell lysate
T2 construct: Protein extracts (500 μg) of colon cancer cells were mixed with Sepharose-4B beads; endogenous in cells; host or cells: HCT116 and HT29 cell lysate
Method: as §3

T2 sequence (Q9NQB0 whole entry): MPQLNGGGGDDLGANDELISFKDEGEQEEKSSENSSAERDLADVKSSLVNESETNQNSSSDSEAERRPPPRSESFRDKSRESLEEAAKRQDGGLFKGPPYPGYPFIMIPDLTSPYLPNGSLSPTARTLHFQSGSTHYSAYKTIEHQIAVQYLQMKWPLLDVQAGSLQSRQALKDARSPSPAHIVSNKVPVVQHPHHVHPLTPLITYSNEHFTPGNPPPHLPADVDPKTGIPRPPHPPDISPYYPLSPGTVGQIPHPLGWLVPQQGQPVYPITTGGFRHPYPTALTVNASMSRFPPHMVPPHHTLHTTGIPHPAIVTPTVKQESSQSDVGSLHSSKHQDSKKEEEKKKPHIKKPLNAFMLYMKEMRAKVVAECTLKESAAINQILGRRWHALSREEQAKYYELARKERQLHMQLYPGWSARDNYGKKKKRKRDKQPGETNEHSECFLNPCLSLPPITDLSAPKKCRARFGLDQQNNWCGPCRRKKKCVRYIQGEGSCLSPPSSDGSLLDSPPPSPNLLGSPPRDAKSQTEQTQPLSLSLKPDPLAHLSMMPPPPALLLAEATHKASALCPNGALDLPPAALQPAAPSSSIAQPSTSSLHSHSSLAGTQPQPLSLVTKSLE

## O=c1ccc2cc(O)c(O)cc2o1 [esculetin]
β-catenin/Tcf-4 complex; colon cancer cells
  disruption of nuclear Tcf-4/β-catenin complex: disrupted the nuclear Tcf-4/β-catenin complex in a dose-dependent manner
[1]
  transcriptional activity of β-catenin/Tcf-4 (luciferase activity): inhibited transcriptional activity of the β-catenin/Tcf complex
[2]; nude mice
  c-Myc and cyclin D1 expression in tumors: decreases
  tumor size: significantly smaller
  xenograft colon cancer tumor growth: effectively inhibited xenograft colon cancer tumor growth
[2]; overall statement
  toxicity: non-toxic
β-catenin
  binding to β-catenin (ex vivo pull-down): verified the binding
Tcf-4/β-catenin complex [3]
  effect on mutant Tcf-4/β-catenin complex: had no effect
Tcf-4/β-catenin complex [4]
  disruption of wildtype Tcf-4/β-catenin complex: effectively disrupted

## CC1(C)CCC(C)(C)c2cc(C(=O)CC3(O)C(=O)Nc4ccc(F)cc43)ccc21 (stereo not drawn) [HI-B9]
[5]
  transcriptional activity of β-catenin/Tcf-4 (luciferase activity): suppress transcriptional activity of the β-catenin/Tcf-4 in a dose-dependent manner
[1]
  transcriptional activity of β-catenin/Tcf-4 (luciferase activity): suppress transcriptional activity of the β-catenin/Tcf-4 in a dose-dependent manner
[6]
  anchorage-independent growth (colony formation in soft agar): suppress anchorage-independent growth
HT-29 colon cancer cells
  anchorage-independent growth (colony formation in soft agar): suppress anchorage-independent growth
β-catenin
  binding to β-catenin (ex vivo pull-down): verified the binding
[7]
  axin2 mRNA expression: reduced
  c-myc mRNA expression: reduced
  cyclin D1 mRNA expression: reduced
  pparδ mRNA expression: reduced

## CC1=C(/C=C/C(=O)/C=C2/C(=O)Nc3ccc(F)cc32)C(C)(C)CCC1 [HI-B5]
β-catenin/Tcf-4 complex; HCT116
  Tcf-4 expression level after chemical treatment: not altered
β-catenin/Tcf-4 complex; HCT116 cell line, dose-dependent
  disruption of β-catenin/Tcf-4 complex (immunoprecipitation): caused disruption of β-catenin/Tcf-4 complex
[5]
  transcriptional activity of β-catenin/Tcf-4 (luciferase activity): suppress transcriptional activity of the β-catenin/Tcf-4 in a dose-dependent manner
[1]
  transcriptional activity of β-catenin/Tcf-4 (luciferase activity): suppress transcriptional activity of the β-catenin/Tcf-4 in a dose-dependent manner
Tcf-4
  binding to Tcf-4 (ex vivo pull-down): not Tcf-4
[6]
  anchorage-independent growth (colony formation in soft agar): suppress anchorage-independent growth
HT-29 colon cancer cells
  anchorage-independent growth (colony formation in soft agar): suppress anchorage-independent growth
β-catenin
  binding to β-catenin (ex vivo pull-down): verified the binding; also recorded: can interact with β-catenin
[7]
  axin2 mRNA expression: reduced
  c-myc mRNA expression: reduced
  cyclin D1 mRNA expression: reduced
  pparδ mRNA expression: reduced
